Laboratory results published in patent US8765152B2, “Pharmaceutical or neutraceutical formulation” (Evonik Roehm GmbH, priority 2010, dated 2014).
Values belong to the molecule of their own block, whether it stands above or below them.

Legend:
Pancreatin = test: In-vitro pancreatic enzyme inhibition test, degradation of desmopressin acetate by pancreatin (Example 14); format: biochemical; conditions: for desmopressin acetate remaining in presence of pancreatin: control solutions (positive control 1 mg/ml BBI final)
Procedure: In-Vitro Pancreatic Enzyme Inhibition Test of the Preparations of Examples 1, 4 and 5
Inhibition experiments were performed using a new study design considering the dissolution of the pellets.
80 mg of each formulation were stirred in 10 ml of HBSS pH 5.8 at the lowest stirring speed available. The stirring was stopped after 30 min and the suspensions allowed to settle down before an aliquot (2 ml) was drawn and mixed with 2 mL of a solution containing 80 μg·ml^−1 of Desmopressin acetate in HBSS buffer pH 6.5. The pH of the solutions was measured but not adjusted.
As a negative control 2 ml of HBSS buffer were mixed with 2 ml of a solution containing 80 μg·ml^−1 of Desmopressin acetate in HBSS buffer pH 6.5. The pH of the solutions was measured but not adjusted.
As a positive control a solution containing 4 mg of BBI per ml in HBSS was used. 2 ml of the solution were mixed with 2 ml of a solution containing 80 μg·ml^−1 of Desmopressin acetate in HBSS buffer pH 6.5. The pH of the solutions was measured but not adjusted.
200 μL of the prepared solutions were mixed with 200 μl of a Pancreatin solution (20 mg·ml^−1) and incubated for 1, 2 and 3 h at 37° C. Each experiment was performed in triplicate (three individually prepared solutions).
(Final concentrations in the positive control: 1 mg/ml BBI, 20 μg/ml desmopressin actuate and 10 mg/ml pancreatin)
For the 100% value 80 mg pellets were stirred in 10 ml HBSS pH 5.8 for 30 min and homogenized using an ultraturrax. The suspension was stirred for further 15 minutes and allowed to settle down.
The supernatant was collected and further diluted with Desmopressin acetate in HBSS buffer pH 6.5 as described above. The pH of the solutions was measured but not adjusted.
For the starting values (t0) the mixture was directly added to 400 μl of acetonitrile and diluted with 1200 μL of HBSS buffer pH 6.5. The solution were analysed by HPLC using a RP-18-column as a stationary phase and a water/acetonitrile-mixture (80:20) as eluent phase at a wavelength of 220 nm.

Caco-2-cell monolayer [1] = test: TEER, cationic penetration promotor/anionic active ingredient mixtures (Example 18); format: cell-based
Procedure: TEER-Testing was performed analogous to example 12.
The following mixtures in HBSS-buffers were tested
Desmopressin acetate=Desmo,
EUDRAGIT® E Carbonate=E (s. description: carbonated amino(meth)acrylate copolymer)
Bowman Birk Inhibitor=BBI
Heparin: Low molecular weight heparin (LMW-Heparine); Fraxiparin™ (Nadroparin calcium); 0.6 ml ready to use syringe for subcutaneous injection (5700 IU anti-Xa/mg); Ch.B.: 3394-1; Glaxo Smith Kline

Caco-2-cell monolayer [2] = test: TEER, pure penetration promotor, Caco-2 cell monolayer (Example 17); format: cell-based; conditions: positive control 0.1%
Procedure: The penetration promoter in the sense of the present invention may be defined by reducing the initial TEER-value of the buffer solution without penetration promotor (100%) to 50% or less, preferably 40% or less, preferably 30% or less, preferably 20% or less in the presence of the penetration promotor at a concentration of 1 mg/ml after 60 min measured in a Caco-2-cell monolayer culture as transport barrier.
TEER-Testing was performed analogous to example 12. EUDRAGIT® E acetate=EUDRAGIT® E dissolved in water by addition of acetic acid until clear solution was obtained; EUDRAGIT® E PO base=dispersion of EUDRAGIT® E PO (powder form of EUDRAGIT® E) in water (not dissolved); chitosan acetate=chitosan dissolved in water by addition of acetic acid until clear solution was obtained.

[3] = orally ingested; cited from earlier work
[4] = listed as buffer (baseline), mean of n = 3

desmopressin acetate remaining in presence of pancreatin (Pancreatin; 0 min): 100.00%
desmopressin acetate remaining in presence of pancreatin (Pancreatin; 60 min): 61.79%
desmopressin acetate remaining in presence of pancreatin (Pancreatin; 120 min): 50.51%
desmopressin acetate remaining in presence of pancreatin (Pancreatin; 180 min): 33.54%
recovery of desmopressin (Pancreatin; in the absence of the BBI, time not stated): more than 60%
Molecule: NC(=O)CC[C@@H]1NC(=O)[C@H](Cc2ccccc2)NC(=O)[C@H](Cc2ccc(O)cc2)NC(=O)CCSSC[C@@H](C(=O)N2CCC[C@H]2C(=O)N[C@H](CCCN=C(N)N)C(=O)NCC(N)=O)NC(=O)[C@H](CC(N)=O)NC1=O [Desmopressin acetate]

Molecule: NC(=O)CC[C@@H]1NC(=O)[C@H](Cc2ccccc2)NC(=O)[C@H](Cc2ccc(O)cc2)NC(=O)CCSSC[C@@H](C(=O)N2CCC[C@H]2C(=O)N[C@H](CCCN=C(N)N)C(=O)NCC(N)=O)NC(=O)[C@H](CC(N)=O)NC1=O [Example 18c, Desmopressin acetate]
TEER in % of TEER in Medium during the test (Caco-2-cell monolayer [1]; 0 min): 119%
TEER in % of TEER in Medium during the test (Caco-2-cell monolayer [1]; 15 min): 111%
TEER in % of TEER in Medium during the test (Caco-2-cell monolayer [1]; 30 min): 115%
TEER in % of TEER in Medium during the test (Caco-2-cell monolayer [1]; 60 min): 111%
TEER in % of TEER in Medium during the test (Caco-2-cell monolayer [1]; 90 min): 118%
TEER in % of TEER in Medium during the test (Caco-2-cell monolayer [1]; 120 min): 119%
TEER in % of TEER in Medium during the test (Caco-2-cell monolayer [1]; 240 min): 109%
TEER in % of TEER in Medium during the test (Caco-2-cell monolayer [1]; [4]): 123%

Molecule: CCCCCCCCCCCCOS(=O)(=O)[O-].[Na+] [Example 18h, Sodiumdodecylsufate]
Mean-TEER (Caco-2-cell monolayer [2]; 5 min): 12%
Mean-TEER (Caco-2-cell monolayer [2]; 60 min): 4%
Mean-TEER (Caco-2-cell monolayer [2]; 120 min): 10%
Mean-TEER (Caco-2-cell monolayer [2]; 180 min): 12%
Mean-TEER (Caco-2-cell monolayer [2]; 240 min): 15%
Mean-TEER (Caco-2-cell monolayer [2]; HBSS (0 min)): 100%
TEER in % of TEER in Medium during the test (Caco-2-cell monolayer [1]; 0 min): 22%
TEER in % of TEER in Medium during the test (Caco-2-cell monolayer [1]; 15 min): 16%
TEER in % of TEER in Medium during the test (Caco-2-cell monolayer [1]; 30 min): 16%
TEER in % of TEER in Medium during the test (Caco-2-cell monolayer [1]; 60 min): 12%
TEER in % of TEER in Medium during the test (Caco-2-cell monolayer [1]; 90 min): 16%
TEER in % of TEER in Medium during the test (Caco-2-cell monolayer [1]; 120 min): 12%
TEER in % of TEER in Medium during the test (Caco-2-cell monolayer [1]; 240 min): 13%
TEER in % of TEER in Medium during the test (Caco-2-cell monolayer [1]; [4]): 123%

Molecule: Nadroparin calcium [Example 18d]
TEER in % of TEER in Medium during the test (Caco-2-cell monolayer [1]; 0 min): 110%
TEER in % of TEER in Medium during the test (Caco-2-cell monolayer [1]; 15 min): 102%
TEER in % of TEER in Medium during the test (Caco-2-cell monolayer [1]; 30 min): 106%
TEER in % of TEER in Medium during the test (Caco-2-cell monolayer [1]; 60 min): 105%
TEER in % of TEER in Medium during the test (Caco-2-cell monolayer [1]; 90 min): 112%
TEER in % of TEER in Medium during the test (Caco-2-cell monolayer [1]; 120 min): 111%
TEER in % of TEER in Medium during the test (Caco-2-cell monolayer [1]; 240 min): 104%
TEER in % of TEER in Medium during the test (Caco-2-cell monolayer [1]; [4]): 118%

desmopressin acetate remaining in presence of pancreatin (Pancreatin; 0 min): 100.00%
desmopressin acetate remaining in presence of pancreatin (Pancreatin; 60 min): 98.82%
desmopressin acetate remaining in presence of pancreatin (Pancreatin; 120 min): 94.48%
desmopressin acetate remaining in presence of pancreatin (Pancreatin; 180 min): 85.25%
inhibition of degradation of desmopressin acetate by pancreatin (in words) (Pancreatin; n=3): remarkably reduce the degradation
B1: BBI: Bowman-Birk inhibitor from soy bean source (Sigma Aldrich); trypsin and chymotrypsin inhibitor (protein, UniProt P01055 40-110, looked up)
Bowman-Birk type proteinase …: DDESSKPCCDQCACTKSNPPQCRCSDMRLNSCHSACKSCICALSYPAQCFCVDITDFCYEPCKPSEDDKEN
ingested bowman birk inhibitor absorbed in to the bloodstream [3]: Approximately 50%
